The target of test [1] is T1, β5 subunit of the human immunoproteasome (IPS) (Homo sapiens, UniProt P28062).
T1 construct: purchased Boston Biochem E-370
The experiment in a line: β5 inhibition assay, human immunoproteasome (Suc-LLVY-AMC). The test is classed as biochemical. Particulars: IC50 class, Suc-LLVY-AMC substrate. Put shortly:
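Human immunoproteasome (1 nM final) was preincubated 10 min at RT with compound in 100 mM HEPES pH 7.5, 50 mM NaCl, 0.02% SDS, 1 mM DTT. Suc-LLVY-AMC (22.6 μM final) was then added for 4 h at RT in the dark. After stopping with 1 μM bortezomib, AMC fluorescence was read (ex 355/em 460 nm).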

A further test has as its system HT-29 cells. In words: CellTiter-Glo luminescent cell viability assay with HT-29 cells (72h incubation). The test is classed as cell-based, human. Particulars: Homo sapiens, HT-29, HT29 cells, read-out: CTG HT29. Put shortly: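 400 cells per well in DMEM/10% FCS were dosed after 24 h and kept 72 h at 37 °C, 5% CO2. ATP-based luminescence (CellTiter-Glo) normalized to DMSO and 10 μM staurosporine controls; IC50 by dose-response fit.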
In general terms: In ATP-based viability assays light output follows the ATP content of the culture.

Consider 21 compounds from patent US20240415819A1, “MACROCYCLIC COMPOUNDS AS PROTEASOME SUBUNIT BETA TYPE-5 INHIBITORS” (Lead Discovery Center GmbH, priority 2021, published 2024).

pIC50: −log10 of the molar value.

As for `COC(=O)N(CC1NC(=O)[C@@H](NC(=O)OCc2ccccc2)CC(=O)N2CCCC(CCOc3ccc(C)c(c3)CNC1=O)C2)c1ccccc1` (stereo partly drawn) [Compound 513, methyl (((12R)-12-(((benzyloxy)carbonyl)amino)-5^4-methyl-8,11,14-trioxo-4-oxa-7,10-diaza-1(3,1)-piperidina-5(1,3)-benzenacyclotetradecaphane-9-yl)methyl)(phenyl)carbamate], the pIC50 (in test [1]; in the test with HT-29 cells) was > 7.00 each time.

With `Cc1ccc2cc1CNC(=O)[C@H](CCc1ccccc1)NC(=O)[C@@H](NC(=O)Cc1cc(O)on1)CC(=O)N1CCCC(CCO2)C1` (stereo partly drawn) [Compound 335, 2-(5-hydroxyisoxazol-3-yl)-N-((9S,12S)-5^4-methyl-8,11,14-trioxo-9-phenethyl-4-oxa-7,10-diaza-1(3,1)-piperidina-5(1,3)-benzenacyclotetradecaphane-12-yl)acetamide], the pIC50 (in test [1]; with HT-29 cells) was > 7.00 each time.

Regarding `COC(=O)N(CC1NC(=O)[C@@H](NC(C)=O)CC(=O)N2CCCC(CCOc3ccc(C)c(c3)CNC1=O)C2)c1ccccc1` (stereo partly drawn) [Compound 560, methyl (((12S)-12-acetamido-5^4-methyl-8,11,14-trioxo-4-oxa-7,10-diaza-1(3,1)-piperidina-5(1,3)-benzenacyclotetradecaphane-9-yl)methyl)(phenyl)carbamate], the pIC50 (in test [1]; with HT-29 cells) was > 7.00 each time.

`CCOC(=O)N[C@H]1CC(=O)N2CCCC(CCOc3ccc(C)c(c3)CNC(=O)C(c3cnn(C)c3)NC1=O)C2` (stereo partly drawn) [Compound 363, Ethyl ((12S)-5^4-methyl-9-(1-methyl-1H-pyrazol-4-yl)-8,11,14-trioxo-4-oxa-7,10-diaza-1(3,1)-piperidina-5(1,3)-benzenacyclotetradecaphane-12-yl)carbamate]: the pIC50 (in test [1]; in the test with HT-29 cells) was > 7.00 in each case.

Regarding `Cc1nc(C2NC(=O)[C@@H](NC(=O)OCc3ccccc3)CC(=O)N3CCCC(CCOc4ccc(C)c(c4)CNC2=O)C3)co1` (stereo partly drawn) [Compound 512, benzyl ((12S)-5^4-methyl-9-(2-methyloxazol-4-yl)-8,11,14-trioxo-4-oxa-7,10-diaza-1(3,1)-piperidina-5(1,3)-benzenacyclotetradecaphane-12-yl)carbamate], the pIC50 (in test [1]; in the test on HT-29 cells) was > 7.00 in each case.

For the compound `Cc1ccc2cc1CNC(=O)[C@H](CCc1ccccc1)NC(=O)[C@@H](NC(=O)OCc1ccccc1)CCCC(=O)N1CCC(CCO2)C1` (stereo partly drawn) [Compound 352, benzyl ((9S, 12S)-5^4-methyl-8,11,16-trioxo-9-phenethyl-4-oxa-7,10-diaza-1(3,1)-pyrrolidina-5(1,3)-benzenacyclohexadecaphane-12-yl)carbamate], the pIC50 (in test [1]; in the test on HT-29 cells) was > 7.00 each time.

With `Cc1ccc2cc1CNC(=O)[C@H](CCc1ccccc1)NC(=O)[C@@H](NC(=O)OCc1ccccc1)CCCC(=O)N1CCCC3(CC(C3)O2)C1` [Compound 283, benzyl ((7S,10S)-34-methyl-6,9,14-trioxo-7-phenethyl-2-oxa-5,8-diaza-15(3,1)-piperidina-3(1,3)-benzena-1(1,3)-cyclobutanapentadecaphane-10-yl)carbamate], the pIC50 in test [1] was > 7.00; with HT-29 cells it was 6.30 to 7.00.

In the case of `Cc1ccc2cc1CNC(=O)[C@H](CCc1ccccc1)NC(=O)[C@@H](NC(=O)OCc1ccccc1)CC(=O)N1CC(C)CC(CCO2)C1` (stereo partly drawn) [Compound 337, benzyl ((9S,12S)-1^5,5^4-dimethyl-8,11,14-trioxo-9-phenethyl-4-oxa-7,10-diaza-1(3,1)-piperidina-5(1,3)-benzenacyclotetradecaphane-12-yl)carbamate], the pIC50 (in test [1]; in the test on HT-29 cells) was > 7.00 in each case.

On to `Cc1ccc2cc1CNC(=O)[C@H](CCc1ccccc1)NC(=O)[C@@H](NC(=O)OCc1ccccc1)CC(=O)N1CC(CCO2)CC2CCCCC21` (stereo partly drawn) [Compound 314, benzyl ((9S,12S)-5^4-methyl-8,11,14-trioxo-9-phenethyl-11,12,13,14,14a,15,16,17,18,18a-decahydro-4-oxa-7,10-diaza-1(3,1)-quinolina-5(1,3)-benzenacyclotetradecaphane-12-yl)carbamate], for which the pIC50 (in test [1]; with HT-29 cells) was > 7.00 throughout.

`CC(=O)N[C@H]1CC(=O)N2CCCC(CCOc3ccc(C)c(c3)CNC(=O)C(c3cnn(CCC(=O)O)c3)NC1=O)C2` (stereo partly drawn) [Compound 567, 3-(4-((12S)-12-acetamido-5^4-methyl-8,11,14-trioxo-4-oxa-7,10-diaza-1(3,1)-piperidina-5(1,3)-benzenacyclotetradecaphane-9-yl)-1H-pyrazol-1-yl)propanoic acid]: the pIC50 in test [1] is > 7.00; with HT-29 cells it was 6.30 to 7.00.

For the compound `CC(=O)N[C@H]1CC(=O)N2CCCC(CCOc3ccc(C)c(c3)CNC(=O)C(CCc3ccncc3)NC1=O)C2` (stereo partly drawn) [Compound 551, N-((12S)-5^4-methyl-8,11,14-trioxo-9-(2-(pyridin-4-yl)ethyl)-4-oxa-7,10-diaza-1(3,1)-piperidina-5(1,3)-benzenacyclotetradecaphane-12-yl)acetamide], the pIC50 (in test [1]; in the test with HT-29 cells) was > 7.00 each time.

As to `Cc1ccc2cc1CNC(=O)[C@H](CCc1ccccc1)NC(=O)[C@@H](NC(=O)Cc1cnc(N)s1)CC(=O)N1CCCC(CCO2)C1` (stereo partly drawn) [Compound 311, 2-(2-aminothiazol-5-yl)-N-((9S,12S)-5^4-methyl-8,11,14-trioxo-9-phenethyl-4-oxa-7,10-diaza-1(3,1)-piperidina-5(1,3)-benzenacyclotetradecaphane-12-yl)acetamide], the pIC50 (in test [1]; with HT-29 cells) was > 7.00 each time.

Take `CCOC(C(=O)N[C@H]1CC(=O)N2CCCC(CCOc3ccc(C)c(c3)CNC(=O)[C@H](CCc3ccccc3)NC1=O)C2)c1ccc(N)cc1` (stereo partly drawn) [Compound 345, 2-(4-aminophenyl)-2-ethoxy-N-((9S,12S)-5^4-methyl-8,11,14-trioxo-9-phenethyl-4-oxa-7,10-diaza-1(3,1)-piperidina-5(1,3)-benzenacyclotetradecaphane-12-yl)acetamide]: the pIC50 (in test [1]; in the test with HT-29 cells) was > 7.00 throughout.

`CC(=O)N[C@H]1CC(=O)N2CCCC(CCOc3ccc(C)c(c3)CNC(=O)C(CCC3CCN(C(C)=O)CC3)NC1=O)C2` (stereo partly drawn) [Compound 338, N-((12S)-9-(2-(1-acetylpiperidin-4-yl)ethyl)-5^4-methyl-8,11,14-trioxo-4-oxa-7,10-diaza-1(3,1)-piperidina-5(1,3)-benzenacyclotetradecaphane-12-yl)acetamide]: the pIC50 (in test [1]; with HT-29 cells) was > 7.00 each time.

`Cc1ccc2cc1CNC(=O)C(CCc1ccncc1)NC(=O)[C@@H](NC(=O)Cc1nnc(N)s1)CC(=O)N1CCCC(CCO2)C1` (stereo partly drawn) [Compound 342, 2-(5-amino-1,3,4-thiadiazol-2-yl)-N-((12S)-5^4-methyl-8,11,14-trioxo-9-(2-(pyridin-4-yl)ethyl)-4-oxa-7,10-diaza-1(3,1)-piperidina-5(1,3)-benzenacyclotetradecaphane-12-yl)acetamide]: the pIC50 (in test [1]; in the test on HT-29 cells) was > 7.00 each time.

For `CC(=O)N[C@H]1CCCC(=O)N(C)CCCCOc2ccc(C)c(c2)CNC(=O)[C@H](CCc2ccccc2)NC1=O` [Compound 295, N-(1^4,7-dimethyl-8,13,16-trioxo-15-phenethyl-2-oxa-7,14,17-triaza-1(1,3)-benzenacyclooctadecaphane-12-yl)acetamide], the pIC50 (in test [1]; in the test on HT-29 cells) was > 7.00 each time.

For `COC(C(=O)N[C@H]1CC(=O)N2CCCC(CCOc3ccc(C)c(c3)CNC(=O)[C@H](CCc3ccccc3)NC1=O)C2)c1ccc(N)cc1` (stereo partly drawn) [Compound 326, 2-(4-aminophenyl)-2-methoxy-N-((9S,12S)-5^4-methyl-8,11,14-trioxo-9-phenethyl-4-oxa-7,10-diaza-1(3,1)-piperidina-5(1,3)-benzenacyclotetradecaphane-12-yl)acetamide], the pIC50 (in test [1]; with HT-29 cells) was > 7.00 each time.

Consider `Cc1ccc2cc1CNC(=O)C(c1cnn(C)c1)NC(=O)[C@@H](NC(=O)CN1CCCC1)CC(=O)N1CCCC(CCO2)C1` (stereo partly drawn) [Compound 358, N-((12S)-5^4-methyl-9-(1-methyl-1H-pyrazol-4-yl)-8,11,14-trioxo-4-oxa-7,10-diaza-1(3,1)-piperidina-5(1,3)-benzenacyclotetradecaphane-12-yl)-2-(pyrrolidin-1-yl)acetamide], for which the pIC50 was > 7.00 in test [1] and 6.30 to 7.00 in the test with HT-29 cells.

Regarding `Cc1ccc2cc1CNC(=O)[C@H](CCc1ccccc1)NC(=O)[C@@H](NC(=O)OCc1ccccc1)CCC(=O)N1CCC(CCO2)C1` (stereo partly drawn) [Compound 350, benzyl ((9S,12S)-5^4-methyl-8,11,15-trioxo-9-phenethyl-4-oxa-7,10-diaza-1(3,1)-pyrrolidina-5(1,3)-benzenacyclopentadecaphane-12-yl)carbamate], the pIC50 (in test [1]; in the test with HT-29 cells) was > 7.00 each time.

Turning to `Cc1ccc2cc1CNC(=O)[C@H](CCc1ccccc1)NC(=O)[C@@H](NC(=O)c1ccc3cc(N)ccc3c1)CC(=O)N1CCCC(CCO2)C1` (stereo partly drawn) [Compound 339, 6-amino-N-((9S,12S)-5^4-methyl-8,11,14-trioxo-9-phenethyl-4-oxa-7,10-diaza-1(3,1)-piperidina-5(1,3)-benzenacyclotetradecaphane-12-yl)-2-naphthamide], the pIC50 (in test [1]; with HT-29 cells) was > 7.00 each time.

For the compound `CC(=O)N[C@H]1CC(=O)N(C)CCCCOc2ccc(C)c(c2)CNC(=O)[C@H](CCc2ccccc2)NC1=O` [Compound 296, N-(1^4,7-dimethyl-8,11,14-trioxo-13-phenethyl-2-oxa-7,12,15-triaza-1(1,3)-benzenacyclohexadecaphane-10-yl)acetamide], the pIC50 (in test [1]; in the test on HT-29 cells) was 6.30 to 7.00 throughout.
